Results on four compounds are retold here after patent US4584382A, “Pyridyl acrylate compound” (priority 1984, dated 1986).

The conditions of series [1]: antihistamines now in use; cited from earlier work.
Series [2] can be described thus: Pharmacokinetic studies comparing relative distribution in brain and plasma. It counts as in vivo. To be noted: rodents.
For another series, the target named is T1, H1 histamine receptor (Cavia porcellus, UniProt P31389).
T1 construct: The longitudinal muscle was isolated from the intact ileum of guinea-pigs; from tissue; host or cells: guinea-pig (Hartley, male) ileum longitudinal muscle
T1 sequence (P31389 whole entry): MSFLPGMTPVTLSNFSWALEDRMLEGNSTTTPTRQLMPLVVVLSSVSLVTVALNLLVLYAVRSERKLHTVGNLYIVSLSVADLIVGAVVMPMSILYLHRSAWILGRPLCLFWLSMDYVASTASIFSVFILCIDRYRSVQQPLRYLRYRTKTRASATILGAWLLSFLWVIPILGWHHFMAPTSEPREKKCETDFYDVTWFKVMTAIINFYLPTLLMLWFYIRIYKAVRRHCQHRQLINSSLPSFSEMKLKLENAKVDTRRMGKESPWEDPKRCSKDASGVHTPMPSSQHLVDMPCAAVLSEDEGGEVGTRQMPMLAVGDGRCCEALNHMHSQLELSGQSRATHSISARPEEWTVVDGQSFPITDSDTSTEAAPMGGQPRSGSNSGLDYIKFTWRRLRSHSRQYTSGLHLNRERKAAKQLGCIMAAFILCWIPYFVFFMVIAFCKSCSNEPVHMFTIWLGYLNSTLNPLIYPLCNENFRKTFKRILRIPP
In words: Antihistaminic activity: antagonism of histamine concentration-response curves in isolated guinea-pig ileum longitudinal muscle (Schild plot). It counts as cell-based. The following applies: negative log of the antagonist concentration shifting the histamine control curve 2X to the right; one hour incubation; read-out: pA2 (converted). On the procedure: The longitudinal muscle was isolated from the intact ileum of guinea-pigs (Hartley, male 250-400 g) and placed in an organ bath under 300 mg tension. After one hour of equilibration, cumulative concentration-response curves (Van Rossum, J. M., Arch. Int. Pharmacodyn. Ther. 143, 299-330, 1963) to histamine were obtained. Following washing, the tissues were incubated for one hour with the test compound and then a second histamine concentration-response curve was run. Shifts to the right of the agonist concentration-response curve produced by the antagonists were used to construct Schild plots (Arunlakshana, O. and Schild, H. O., Br. J. Pharmacol: 14, 48-58, 1959). Regression of Log (dr-1) on Log [B], where dr is an equiactive response in the presence and absence of antagonist and [B] is the molar concentration of antagonist, allowed an estimate of pA2, i.e. the negative log of the concentration of antagonist which shifts the control histamine concentration-response curve 2X to the right.

Series [3] has as its system H1 histamine receptor sites. In words: Binding to H1 histamine receptor sites (statement). Set-up: species or system mammals including humans.
The nature of series [4]: Anticholinergic activity / side effects (statement). The following applies: in contrast to the antihistamines in present use.
Series [5] in a line: Sedative effects (statement). It is filed as in vivo. To be noted: in contrast to the antihistamines in present use.
For series [6] the following is noted: human, in vivo; cited from earlier work.
The conditions of series [7]: clinical use; cited from earlier work.

As for `COc1ccc(CN(CCN(C)C)c2ccccn2)cc1` [pyrilamine], the anticholinergic activity result in series [1] is “varying degrees of anticholinergic activity”.
Consider `CC(CN1c2ccccc2Sc2ccccc21)N(C)C` (centres unmarked) [promethazine], for which the anticholinergic activity entry in series [1] is on record as “varying degrees of anticholinergic activity”.
As to `O=C(O)/C=C/c1cccc(/C(=C/CN2CCCC2)c2ccc(C(F)(F)F)cc2)n1` [Compound of Formula (I), (E)-3-{6-[3-Pyrrolidino-1(4-Trifluoromethylphenyl)prop-1E-enyl]-2-pyridyl}acrylic acid], the brain penetration result in series [2] is reported as “does not readily penetrate the brains of rodents”. Also, the Kb at H1 histamine receptor was 0.0398 nM. The “binding to H1 histamine receptor sites” value in series [3] is recorded as “binds competitively to the H1 histamine receptor sites”. Further, in series [4], the anticholinergic side effects entry is given as “little or no anticholinergic side effects”. Also, the sedating effect entry in series [5] is on record as “essentially not sedating”.
For `Cc1ccc(/C(=C\CN2CCCC2)c2ccccn2)cc1` [Triprolidine, (E)-1-(4-methylphenyl)-1-(2-pyridyl)-3-pyrrolidinoprop-1-ene], the Kb at H1 histamine receptor was 0.0794 nM. Further, the anticholinergic activity result in series [1] is on record as “varying degrees of anticholinergic activity”. Further, in series [6], the sedation and drowsiness result was “produces sedation and drowsiness in varying degrees in most patients”. Further, in series [7], the antihistamine potency result is given as “one of the most potent antihistamines available”.
